Test results reported in ChEMBL document CHEMBL1131775, “The synthesis of water soluble prodrugs analogs of echinocandin B” (1999).
Values after ≈ are worked out from the molar mass of the structure shown. Starred links: 1 amine or outer side, 2 acyl side, 3 side chain; linkers in the order of their positions; H or OH if unused. Positions of bridges follow the written chain, without caps; N, C: chain ends. Non-standard residues stand in square brackets, D forms with d. Residues, ends and D or L forms follow the SMILES beside them. *: point of attachment. pTerphenylCO(4''-OnC5H11) = CCCCCOc1ccc(-c2ccc(-c3ccc(C(=O)*)cc3)cc2)cc1; Orn(4R-OH,5R-OH) = O=C([C@H](C[C@@H](O)[C@@H](O)N[*:3])N[*:1])[*:2]; hTyr(3S-OH,4S-OH) = N[C@H](C(=O)O)[C@H](O)[C@@H](O)c1ccc(O)cc1; X1 = COP(=O)(O)Oc1ccc(C[C@@H](O)[C@H](N[*:1])C(=O)[*:2])cc1; Orn(4R-OH) = O=C([C@H](C[C@@H](O)CN[*:3])N[*:1])[*:2]; Pro(3S-OH,4S-Me) = C[C@H]1CN[C@H](C(=O)O)[C@H]1O; Hyp = O=C(O)[C@@H]1C[C@@H](O)CN1

Legend:
Candida albicans [1] = experiment: In vitro antifungal activity against candida albicans; type: functional
Candida albicans [2] = experiment: In vitro antifungal activity against candida albicans after intraperitoneal administration of the compound; type: functional; conditions: ip

SMILES | MIC (Candida albicans [1]) [µg/mL] | ED50 (Candida albicans [2]) [mg/kg]
CCCCCOc1ccc(-c2ccc(-c3ccc(C(=O)N[C@H]4C[C@@H](O)CNC(=O)[C@@H]5[C@@H](O)[C@@H](C)CN5C(=O)[C@H]([C@@H](C)O)NC(=O)[C@H]([C@H](O)Cc5ccc(OP(=O)(O)OC)cc5)NC(=O)[C@@H]5C[C@@H](O)CN5C(=O)[C@H]([C@@H](C)O)NC4=O)cc3)cc2)cc1 ({pTerphenylCO(4''-OnC5H11)}-[Orn(4R-OH)]T[Hyp][X1]T[Pro(3S-OH,4S-Me)]; lactam 1-C) | 0.312 (≈ 0.26 µM) | 0.47
CCCCCOc1ccc(-c2ccc(-c3ccc(C(=O)N[C@H]4C[C@@H](O)[C@@H](O)NC(=O)[C@@H]5[C@@H](O)[C@@H](C)CN5C(=O)[C@H]([C@@H](C)O)NC(=O)[C@H]([C@H](O)[C@@H](O)c5ccc(O)cc5)NC(=O)[C@@H]5C[C@@H](O)CN5C(=O)[C@H]([C@@H](C)O)NC4=O)cc3)cc2)cc1 [ANIDULAFUNGIN] ({pTerphenylCO(4''-OnC5H11)}-[Orn(4R-OH,5R-OH)]T[Hyp][hTyr(3S-OH,4S-OH)]T[Pro(3S-OH,4S-Me)]; lactam 1-C) | 0.01 (≈ 0.00877 µM) | 0.32
